In ChEMBL document CHEMBL3352142, “Discovery of a new class of cinnamyl-triazole as potent and selective inhibitors of aromatase (cytochrome P450 19A1)” (Bioorg Med Chem Lett, 2014):

Key:
Aromatase [1] = molecular target: T1, Aromatase (Homo sapiens, UniProt P11511); assay: Reversible inhibition of recombinant human CYP19A1 assessed as inhibition of DBF conversion to fluorescein by-product by fluorometry
T1 sequence (P11511 whole entry): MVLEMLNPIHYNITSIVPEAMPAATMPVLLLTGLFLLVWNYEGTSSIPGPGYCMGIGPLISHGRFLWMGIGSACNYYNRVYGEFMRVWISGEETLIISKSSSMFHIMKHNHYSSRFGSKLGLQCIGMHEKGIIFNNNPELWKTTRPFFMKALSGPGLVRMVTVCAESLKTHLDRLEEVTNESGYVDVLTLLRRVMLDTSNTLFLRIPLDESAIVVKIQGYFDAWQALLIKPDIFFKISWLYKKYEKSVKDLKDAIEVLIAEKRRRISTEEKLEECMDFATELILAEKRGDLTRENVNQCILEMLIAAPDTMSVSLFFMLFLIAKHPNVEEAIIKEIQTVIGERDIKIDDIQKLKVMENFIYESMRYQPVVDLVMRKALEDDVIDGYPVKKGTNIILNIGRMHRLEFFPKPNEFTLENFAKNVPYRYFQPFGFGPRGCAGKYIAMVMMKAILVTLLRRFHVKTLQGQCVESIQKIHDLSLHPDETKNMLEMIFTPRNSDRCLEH

Aromatase [2] = molecular target: T1, Aromatase
Description: Inhibition of recombinant human CYP19A1 assessed as inhibition of DBF conversion to fluorescein by-product by fluorometry

Aromatase [3] = molecular target: T1, Aromatase; assay: Irreversible inhibition of recombinant human CYP19A1 assessed as inhibition of DBF conversion to fluorescein by-product by fluorometry

Row | Ki (Aromatase [2]) | Structure (SMILES) | other results
1 | – | CCOC(=O)c1nnn(Cc2cccc(Br)c2)c1-c1ccc(Br)cc1 | Ki (Aromatase [1]): 20 nM
2 | 150 nM | CCOC(=O)c1nnn(Cc2cccc(Br)c2)c1-c1ccccc1 | –
3 | 360 nM | CCOC(=O)c1nnn(Cc2ccccc2)c1-c1ccc(Cl)cc1 | –
4 | – | CCOC(=O)c1nnn(Cc2ccccc2)c1-c1ccc(Br)cc1 | Ki (Aromatase [1]): 640 nM
5 | – | CCOC(=O)c1nnn(Cc2ccccc2)c1-c1ccccc1 | Ki (Aromatase [3]): 1410 nM
6 | 710 nM | CCOC(=O)c1nnn(Cc2ccccc2)c1-c1ccc2c(c1)OCO2 | –
7 | 710 nM | CCOC(=O)c1nnn(Cc2ccccc2)c1-c1ccc(C)cc1 | –
